Assay results as given in patent US6713506B2, “Tea polyphenol esters and analogs thereof for cancer prevention and treatment” (University of South Florida, priority 2000, dated 2004).
Non-standard residues stand in square brackets, D forms with d. Residues, ends and D or L forms follow the SMILES beside them. *: point of attachment. Nle = CCCC[C@H](N)C(=O)O; Nva = CCC[C@H](N)C(=O)O; Cbz = O=C(OCc1ccccc1)*

How the values were obtained:
[1] = biological target: chymotrypsin-like activity of purified 20S proteasome (UniProt Q9P992); format: biochemical; settings: for IC50: read-out: IC50 towards the chymotrypsin-like activity of purified 20S proteasome
Protocol: (§1) FIG. 8. […] A). […] Initially, 0.5 μg of purified 20S proteasome is incubated with 20 μM of a fluorogenic peptide substrate, Suc-Leu-Leu-Val-Tyr-AMC, for 30 min at 37° C. in 100 μl of assay buffer (20 mM Tris-HCl, pH 8.0) with various concentrations of tannic acid. After incubation, the reaction mixture is diluted to 200 μl with the assay buffer, followed by measurement of the hydrolyzed 7-amido-4-methyl-coumarin (AMC) groups using a fluorometer with an excitation filter of 380 nm and an emission filter of 460 nm. B). […] Tannic acid (0.3 μg/ml) and Glucose (180 μg/ml) are used in the proteasome activity assay as described above. C). […] Purified calpain I (3 μg) protein is incubated with 40 μM of a fluorogenic peptide substrate, Suc-Leu-Tyr-AMC, for 30 min at 37° C. in 100 μl of assay buffer (50 mM Tris-HCl, pH 7.5, containing 50 mM NaCl, 1 mM EDTA, 1 mM EGTA, 5 mM β-Mercaptoethanol, 5 mM CaCl2, and 0.1% CHAPS) in the absence (control) or presence of 5 μg/ml of tannic acid or 0.18 μg/ml of calpeptin (calpain inhibitor).
(§2) Inhibition of the proteasome activity in vitro by tea polyphenols—To measure the 20S proteasome chymotrypsin-like activity, 0.5 μg of a purified 20S proteasome (Calbiochem) is incubated with 20 μM of a fluorogenic peptide substrate, Suc-Leu-Leu-Val-Tyr-AMC (Calbiochem), for 30 min at 37° C. in 100 μl of assay buffer (20 mM Tris-HCl, pH 8.0), with or without tea polyphenols (purity >95%; Sigma) or tea extract. After incubation, the reaction mixture is diluted to 200 μl with the assay buffer, followed by measurement of the hydrolyzed 7-amido-4-methyl-coumarin (AMC) groups using a VersaFluor™ Fluorometer with an excitation filter of 380 nm and an emission filter of 460 nm (Bio-Rad).

[2] = biological target: chymotrypsin-like activity of purified 20S proteasome; format: biochemical; settings: read-out: IC50 towards the chymotrypsin-like activity of purified 20S proteasome
Protocol: as §1, §2

[3] = biological target: T1, caspase-3-like activity in Jurkat T cell extract (Homo sapiens, UniProt P42574); assay: Caspase-3 activity assay in Jurkat T cell extract; format: biochemical
T1 construct: endogenous in cells; host or cells: Jurkat T cell whole cell extract
T1 sequence (P42574 29-175 limits assumed): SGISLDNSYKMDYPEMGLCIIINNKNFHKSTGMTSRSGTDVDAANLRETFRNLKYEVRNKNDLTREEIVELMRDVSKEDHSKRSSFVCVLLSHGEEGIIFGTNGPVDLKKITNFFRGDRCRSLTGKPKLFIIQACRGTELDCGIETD
T1 sequence (P42574 176-277 limits assumed): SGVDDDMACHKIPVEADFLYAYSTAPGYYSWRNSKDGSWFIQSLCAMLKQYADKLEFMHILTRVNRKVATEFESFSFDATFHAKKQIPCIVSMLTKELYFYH
Protocol: Calpain I and Caspase-3 activities assays with tea polyphenols—To measure calpain I activity, 3 μg purified calpain I (Human Erythrocytes, Calbiochem) is incubated with 40 μM of a fluorogenic peptide substrate, Suc-Leu-Tyr-AMC (Calbiochem), for 30 min at 37° C. in 100 μl of assay buffer (50 mM Tris-HCl, pH 7.5, containing 50 mM NaCl, 1 mM EDTA, 1 mM EGTA, 5 mM β-Mercaptoethanol, 5 mM CaCl2, and 0.1% CHAPS), with or without EGCG. After incubation, the reaction mixture is diluted to 200 μl with the assay buffer, and the hydrolyzed AMCs are quantified as described above. For caspase-3 activity assay, the whole cell extract (3.5 μg) from Jurkat T cells is incubated for 90 min at 37° C. with 20 μM of a fluorogenic peptide substrate, Ac-Asp-Glu-Val-Asp-AMC. These procedures were similar to those of the proteasome assay with cell free extracts described above.

[4] = biological target: T2, proteasome chymotrypsin-like activity in living Jurkat cells (Homo sapiens, UniProt P28074); assay: Proteasome chymotrypsin-like activity in living Jurkat T cells; format: cell-based; settings: 10 μM, living Jurkat cells
T2 construct: endogenous in cells; host or cells: Jurkat T cells (whole cell extract or intact cells)
Protocol: FIG. 10. Inhibition of the chymotrypsin-like activity by tannic acid in intact Jurkat T cells. Intact Jurkat T cells (1×10^5 cells/ml/well) are cultured in 24-well plates. These cells are first incubated for 12 h with various concentrations of tannic acid as indicated, followed by an additional 2 h-incubation with a fluorogenic peptide substrate, Suc-Leu-Leu-Val-Tyr-AMC for the chymotrypsin-like activity. Then, cell medium (200 μl per sample) is collected and used for measurement of free AMCs.
Inhibition of the proteasome activity in living cells by tea polyphenols—To measure inhibition of the chymotrypsin-like activity in living tumor cells, Jurkat T (1×10^5 cells/ml/well), MCF7 or PC-3 cells (1×10^4 cells/ml/well) are cultured in 24-well plates. These cells are first incubated for 12 h with various concentrations of EGCG, EGC, β-lactone or LLnL, followed by an additional 2 h-incubation with fluorogenic peptide substrates, Suc-Leu-Leu-Val-Tyr-AMC for the chymotrypsin-like activity and Z-Gly-Gly-Arg-AMC for the trypsin-like activity. After that, cell medium (200 μl per sample) is collected and used for measurement of free AMCs.

purified calpain I = biological target: T3, purified calpain I (Homo sapiens, UniProt P07384); assay: Calpain I activity assay; format: biochemical; settings: FIG. 3B: EGCG 10 μM, calpeptin 1 μM
T3 construct: 3 μg purified calpain I (Human Erythrocytes, Calbiochem) is incubated; purchased Calbiochem; host or cells: human erythrocytes (tissue-purified)
T3 sequence (P07384 1-714): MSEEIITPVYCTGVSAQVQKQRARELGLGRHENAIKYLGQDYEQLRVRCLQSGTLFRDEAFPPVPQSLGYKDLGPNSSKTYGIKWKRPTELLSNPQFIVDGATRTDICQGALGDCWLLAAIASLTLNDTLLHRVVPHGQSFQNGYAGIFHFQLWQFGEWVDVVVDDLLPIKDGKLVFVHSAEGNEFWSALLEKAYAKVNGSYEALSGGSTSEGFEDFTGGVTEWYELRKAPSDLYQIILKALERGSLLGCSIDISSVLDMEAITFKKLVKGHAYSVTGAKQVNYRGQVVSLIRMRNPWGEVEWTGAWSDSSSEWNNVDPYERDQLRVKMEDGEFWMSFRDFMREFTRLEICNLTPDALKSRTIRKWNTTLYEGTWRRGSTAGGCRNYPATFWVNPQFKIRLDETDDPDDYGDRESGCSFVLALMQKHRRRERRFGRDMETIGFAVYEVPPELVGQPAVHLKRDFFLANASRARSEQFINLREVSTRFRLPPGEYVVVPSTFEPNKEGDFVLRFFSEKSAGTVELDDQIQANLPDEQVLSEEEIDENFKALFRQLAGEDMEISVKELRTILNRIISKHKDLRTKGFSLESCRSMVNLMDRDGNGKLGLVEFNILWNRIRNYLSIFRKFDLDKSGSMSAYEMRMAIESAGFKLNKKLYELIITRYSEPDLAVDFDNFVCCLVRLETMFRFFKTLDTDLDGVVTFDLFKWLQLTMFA
T3 sequence (P04632 1-268 partner): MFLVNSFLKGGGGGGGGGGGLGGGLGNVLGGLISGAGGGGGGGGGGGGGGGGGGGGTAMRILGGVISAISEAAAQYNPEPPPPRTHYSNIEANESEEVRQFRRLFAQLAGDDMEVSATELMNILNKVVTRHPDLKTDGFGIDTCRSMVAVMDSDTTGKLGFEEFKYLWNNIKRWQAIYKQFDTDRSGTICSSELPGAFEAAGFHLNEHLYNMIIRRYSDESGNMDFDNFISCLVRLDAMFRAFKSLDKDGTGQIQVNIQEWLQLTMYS
Protocol: as §1

[5] = biological target: T4, proteasome activity in MCF-7 cells (Homo sapiens, UniProt P28072+P28074+Q99436); assay: Proteasome activity in lysate of pretreated MCF-7 cells; format: cell-based; settings: MCF-7 cells pretreated with inhibitor
T4 construct: endogenous in cells; host or cells: MCF-7 cells, pretreated and then lysed
T4 sequence (P28074 60-263): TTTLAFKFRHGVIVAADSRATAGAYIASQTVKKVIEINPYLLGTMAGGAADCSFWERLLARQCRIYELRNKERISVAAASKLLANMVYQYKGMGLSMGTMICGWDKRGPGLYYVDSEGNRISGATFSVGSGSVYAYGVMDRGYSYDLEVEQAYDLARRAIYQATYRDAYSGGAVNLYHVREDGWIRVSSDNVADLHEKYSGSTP
T4 sequence (P28072 1-239): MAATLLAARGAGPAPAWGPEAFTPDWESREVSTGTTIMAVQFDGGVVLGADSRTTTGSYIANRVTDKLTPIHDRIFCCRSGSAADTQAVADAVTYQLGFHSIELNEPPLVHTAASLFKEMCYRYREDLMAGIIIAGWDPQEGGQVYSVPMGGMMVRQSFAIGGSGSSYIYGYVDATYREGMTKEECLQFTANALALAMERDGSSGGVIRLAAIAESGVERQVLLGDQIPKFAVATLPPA
T4 sequence (Q99436 44-277): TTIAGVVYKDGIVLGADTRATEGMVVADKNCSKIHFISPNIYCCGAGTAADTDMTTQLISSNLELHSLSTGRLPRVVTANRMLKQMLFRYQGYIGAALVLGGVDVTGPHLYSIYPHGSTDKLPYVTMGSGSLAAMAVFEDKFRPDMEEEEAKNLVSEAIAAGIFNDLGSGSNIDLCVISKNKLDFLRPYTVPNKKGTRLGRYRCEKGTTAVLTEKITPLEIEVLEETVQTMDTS
Protocol: (a) The selected cell lines are treated with EGCG (vs. EGC) or ECG (vs. EC) at various concentrations (0-80 μM) for up to 96 h, followed by preparation of protein extracts and measurement of the proteasomal chymotrypsin-like, trypsin-like and PGPH activities and the calpain activity in cell-free assay. […] Thus, a protein extract of breast cancer cells pretreated with EGCG also contains decreased levels of the proteasome activity.

chymotrypsin-like activity of purified 20S proteasome (UniProt Q9P992), sequence (Q9P992 whole entry): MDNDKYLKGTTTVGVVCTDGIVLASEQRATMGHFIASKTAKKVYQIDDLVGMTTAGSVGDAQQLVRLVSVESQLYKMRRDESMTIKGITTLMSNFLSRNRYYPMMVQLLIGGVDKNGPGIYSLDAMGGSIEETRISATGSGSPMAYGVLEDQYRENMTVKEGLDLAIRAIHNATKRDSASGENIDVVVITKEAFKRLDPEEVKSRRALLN
chymotrypsin-like activity of purified 20S proteasome, sequence (Q9P992 whole entry): as above

Compound: Oc1cc(O)c2c(c1)O[C@H](c1cc(O)c(O)c(O)c1)[C@@H](O)C2 [GC, (−)-gallocatechin]
- inhibition of purified 20S proteasome chymotrypsin-like activity (in words) [1]: do not inhibit the proteasome activity

Compound: (−)-gallocatechin-3-gallate [GCG]
- IC50 [1]: 0.187 µM

Compound: COC(=O)c1cc(O)c(O)c(O)c1 [methyl gallate, reference compound]
- inhibition of purified 20S proteasome chymotrypsin-like activity (in words) [1]: more potent than gallate

Compound: O=C(O)c1cc(O)c(O)c(O)c1 [gallic acid, reference compound]
- fold less potent than EGCG ([1]; ratio of IC50 to EGCG): 83,000 fold
- IC50 [2]: 7100 µM

Compound: Ac-DEVD-CMK [reference compound]
- inhibition of caspase-3-like activity (in words) [3]: blocked

Compound: CC(C)[C@H](O)[C@@]12NC(=O)[C@H](C)[C@@H]1OC2=O [β-lactone, clastolactacystin β-lactone, reference compound]
- IC50 [1]: 0.6 µM
- inhibition of chymotrypsin-like activity [4]: 20%

Compound: CCCC[C@@H](C=O)NC(=O)[C@H](CC(C)C)NC(=O)OCc1ccccc1 [Calpeptin, calpeptin, reference compound]
- inhibition of purified calpain activity (in words) (purified calpain I): able to inhibit

Compound: CCC[C@@H](C=O)NC(=O)[C@H](CC(C)C)NC(=O)[C@H](CC(C)C)NC(=O)OCc1ccccc1 [LLnV] (Cbz-Leu-Leu-[Nva]-aldehyde)
- proteasome activity in lysate of pretreated cells [5]: decreased levels of proteasome activity

Compound: Oc1cc(O)c2c(c1)OC(c1ccc(O)c(O)c1)C(O)C2 (single isomer, unassigned; (-)) [C, (−)-catechin]
- inhibition of purified 20S proteasome chymotrypsin-like activity (in words) [1]: do not inhibit the proteasome activity

Compound: (−)-catechin-3-gallate [CG]
- IC50 [1]: 0.124 µM

Compound: CCCC[C@@H](C=O)NC(=O)[C@H](CC(C)C)NC(=O)[C@H](CC(C)C)NC(C)=O [LLnL, reference compound] (Ac-Leu-Leu-[Nle]-aldehyde)
- inhibition of chymotrypsin-like activity [4]: 40%

Compound: (−)-epicatechin-3-gallate [ECG]
- IC50 [1]: 0.194 µM
